Inconclusive results are not listed. Active and inactive are the calls of the source. No rule for the calls is given here; tested in MIN6 cells.
Experiment: cell-permeable autofluorescent compounds in GFP channel, dose response, artefact control, imaging, high-content imaging (AID 2124);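 also: cells exposed to compound for 48 hours before fixing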
Conditions: cells, GFP-channel autofluorescence, high-content imaging, at 10 µM; for z-score: stronger effect = higher value

| SMILES | z-score | cell count |
| --- | --- | --- |
| COc1cc([N+](=O)[O-])ccc1-c1ccc(/C=N/NC(N)=O)o1 | -0.34 (inactive) | 2860 cells |
| COc1ccc(C2=NC(=O)/C(=C\c3cc(OC)c(OC)c(OC)c3)O2)cc1 | -0.38 (inactive) | 2830 cells |
| CC(C)(CNS(=O)(=O)c1ccc(Cl)cc1)N1CCCCC1 | -0.34 (inactive) | 3730 cells |
| NS(=O)(=O)c1cccc2cccnc12 | -0.33 (inactive) | 3060 cells |
| COc1cc(C)nc(N2CCCC(C(=O)Nc3cccc(Cl)c3C)C2)n1 (stereo not given) | -0.38 (inactive) | 3090 cells |
| Cc1n[nH]c(C)c1N1C(=O)c2cccc3c(N4CCCCCC4)ccc(c23)C1=O | 0.33 | 2690 cells |
| COc1cc(Cl)c(C)cc1NC(=O)CN(C)Cc1cccc(OC)c1OC | -0.26 (inactive) | 2910 cells |
| O=C1N/C(=N/Nc2ccccc2)S/C1=C\c1ccccc1 | -0.26 (inactive) | 3090 cells |
| Cc1ccc(-n2c(Cc3cccs3)nnc2SCC(=O)OC(C)C)cc1 | -0.38 (inactive) | 2980 cells |
| CCN(CC)c1ccc(/C=C(/C#N)c2nc3ccc(C)cc3[nH]2)c(OC(C)C)c1 | 2.57 | 1480 cells |
| CCN(CC)c1ccc2cc(S(=O)(=O)c3ccc(Cl)cc3)c(=O)oc2c1 | -0.31 (inactive) | 2590 cells |
| CCCCn1c(SCC(=O)O)nc2ccccc21 | -0.33 (inactive) | 2830 cells |
| Cc1[nH]c2ccccc2c1/C=N/Nc1ccc([N+](=O)[O-])cc1 | 0.2 | 1600 cells |
| COC(=O)c1cnn2c(C(F)(F)F)cc(-c3ccc(F)cc3)nc12 | -0.33 (inactive) | 2980 cells |
| O=C1S/C(=C/c2ccc(N3CCOCC3)o2)C(=O)N1Cc1ccc(F)cc1 | 0.51 | 3300 cells |
| Cc1cc(Nc2nn(C)c(N)c2C#N)ccc1F | -0.33 (inactive) | 3300 cells |
| CC1CCCC(C)N1C(=O)CSc1nnc(-c2cccs2)o1 (stereo not given) | -0.33 (inactive) | 2440 cells |
| CCOc1ccc(C2C(C(=O)O)c3ccccc3C(=O)N2CCN2CCOCC2)cc1 (stereo not given) | -0.39 (inactive) | 3370 cells |
| CCc1ccc(NC(=O)c2cc(C(C)C)on2)cc1 | -0.39 (inactive) | 3050 cells |
| Cc1cc(NC(=S)N(Cc2ccc(Br)cc2)Cc2ccc(C(=O)O)cc2)ccc1Cl | -0.38 (inactive) | 2830 cells |
| COc1ccc(NC(=O)c2sc3nc(-c4cccnc4)ccc3c2N)cc1 | -0.3 (inactive) | 2880 cells |
| COc1ccc(N(C(=O)Cc2cccs2)C2C=CS(=O)(=O)C2)cc1 (stereo not given) | -0.39 (inactive) | 3350 cells |
| CCCCNc1ccc2c3c(cccc13)C(=O)N(CCCC)C2=O | 3.41 | 2720 cells |
| Cc1ccccc1OCC(=O)OC1CCN(C)CC1 | -0.38 (inactive) | 2940 cells |
| O=C(c1cccs1)c1no[n+]([O-])c1C(=O)c1cccs1 | -0.31 (inactive) | 586 cells |
| O=C(/C=C/c1ccc2ccccc2n1)c1cc(Br)ccc1O | -0.24 (inactive) | 2620 cells |
| Oc1ccc(Cl)cc1C1=Nc2ccccc2N=C(c2ccco2)C1 | -0.35 (inactive) | 2660 cells |

| SMILES | z-score | cell count |
| --- | --- | --- |
| CCOC(=O)/C(=C\C=C1/Sc2cc(OCC)c(OCC)cc2N1CC)C(C)=O | 0.55 | 2790 cells |
| O=c1c2ccccc2c(C=Nc2ccccc2O)c(O)n1-c1nccs1 | -0.35 (inactive) | 2390 cells |
| CCCn1c(SCC(=O)NC2CCCCC2)nnc1-c1ccncc1 | -0.25 (inactive) | 2960 cells |
| CN(CCCNC(=O)CN1C(=O)CC(C)(C)S(=O)(=O)c2ccccc21)C1CCCCC1 | -0.33 (inactive) | 3030 cells |
| CCOc1ccc(-c2c(C#N)c(N)nc3sc(C(=O)c4ccccc4)c(N)c23)cc1 | 0.98 | 3090 cells |
| Cc1cccc2sc(NNC(=O)c3ccc4c(c3)OCCO4)nc12 | -0.39 (inactive) | 3230 cells |
| CC(C)(C)C(=O)/C=c1\s/c(=C\c2ccc(-c3ccc([N+](=O)[O-])cc3)o2)c(=O)n1CC(=O)NC(N)=O | 4.23 | 3110 cells |
| COc1ccc(-c2ccc3c(N)c(C(=O)c4cccc(OC)c4)sc3n2)cc1 | -0.24 (inactive) | 2850 cells |
| COC(=O)[C@@H](NC(=O)Nc1cccc(OC)c1)C(C)C | -0.39 (inactive) | 3030 cells |
| Cc1cccc(OCCNc2nc3c(c(=O)n(C)c(=O)n3C)n2C)c1 | -0.33 (inactive) | 3060 cells |
| CCOc1ccc(OCC)c(-c2c(=O)n(OCc3ccc(Cl)cc3)c3ccccc3[n+]2[O-])c1 | -0.38 (inactive) | 2760 cells |
| COc1ccc(CN(CC2CCC(C(=O)O)CC2)C(=S)Nc2cccc(C)c2)cc1 (stereo not given) | -0.38 (inactive) | 3120 cells |
| N#C/C(=C/c1ccc(N2CCCCC2)o1)C(=O)Nc1ccc2ccccc2c1 | 5.59 | 3000 cells |
| N#Cc1ccc(-c2ccc(Cl)cc2)nc1SCC(=O)c1cccc(Cl)c1 | -0.27 (inactive) | 3130 cells |
| O=C(NCc1cccs1)c1ccc(N2CCCCC2)nc1 | -0.33 (inactive) | 2760 cells |
| COc1ccccc1CC(=O)NC1CC(C)(C)NC(C)(C)C1 | -0.33 (inactive) | 2940 cells |
| COC(=O)c1ccc(COc2ccc3c(C)c(C)c(=O)oc3c2)o1 | -0.33 (inactive) | 3400 cells |
| Cc1[nH]c2ccccc2c1Cc1nnc(SCC(N)=O)o1 | -0.26 (inactive) | 2780 cells |
| Cc1cc(/C=C2\NC(=S)N(C)C2=O)ccc1N1CCCC1 | 0.07 | 2980 cells |
| CC(=O)OC(C(=O)NCc1ccc(F)cc1)c1ccccn1 (stereo not given) | -0.39 (inactive) | 2840 cells |
| CCN(CC)c1ccc2cc(C#N)c(=O)oc2c1 | -0.32 (inactive) | 3390 cells |
| CC1=Nc2ccccc2/C1=C/c1sc(=S)n(-c2cccc(C(=O)O)c2)c1O | -0.37 (inactive) | 3380 cells |
| CCn1nnc2sc3c(c2c1=O)CCC(C)C3 (stereo not given) | -0.39 (inactive) | 3170 cells |
| COCCNC(=O)Cc1ccc(F)cc1 | -0.33 (inactive) | 2820 cells |
| CCCCCCc1cc2cc(-c3nnc(-c4ccccc4O)o3)c(=O)oc2cc1O | -0.21 (inactive) | 2760 cells |
| Cc1ccc(-c2ccc(/C=C(\C#N)C(=O)Nc3cc(C)nn3-c3ccccc3)o2)cc1 | 1.66 | 2460 cells |
| Cc1nc(NC(=O)COC(=O)CCS(=O)(=O)c2ccccc2Cl)c(Cl)cc1Cl | -0.39 (inactive) | 3210 cells |

| SMILES | z-score | cell count |
| --- | --- | --- |
| O=c1c(N2CCOCC2)c(N2CCOCC2)c1=O | -0.39 (inactive) | 3130 cells |
| C=CCn1c(=NC(=O)c2cc(-c3cccs3)nc3ccccc23)sc2cc(S(N)(=O)=O)ccc21 | -0.33 (inactive) | 2770 cells |
| Cc1ccc2nc(/C(C#N)=C\c3ccc(N4CCOCC4)o3)[nH]c2c1 | 0.7 | 2680 cells |
| OC1(c2cn(Cc3ccccc3)nn2)CCCCC1 | -0.33 (inactive) | 3100 cells |
| CCOc1ccc(NC2=NCC(=O)N2Cc2cccs2)cc1 | -0.38 (inactive) | 3020 cells |
| Cc1ccc(C(=O)NCCCn2ccnc2)cc1[N+](=O)[O-] | -0.39 (inactive) | 3010 cells |
| COc1ccc(C)cc1NC(=O)CC(NC(C)=O)c1ccccc1 (stereo not given) | -0.33 (inactive) | 3060 cells |
| O=C(NCCc1csc(-c2ccccc2)n1)c1ccccc1F | -0.25 (inactive) | 3010 cells |
| COc1ccc(N=C2NC(=O)S/C2=C\c2ccc(N(C)C)cc2)cc1 | -0.25 (inactive) | 2870 cells |
| CCn1c(SCC(=O)c2c[nH]c3ccccc23)nc2cc(S(=O)(=O)N3CCOCC3)ccc21 | -0.36 (inactive) | 3200 cells |
| Cc1cccc(NC(=O)/C=C/c2ccc([N+](=O)[O-])s2)c1 | 0.41 | 244 cells |
| CCCc1cc(=O)[nH]c(SCC(=O)NCCCC(=O)OCC)n1 | -0.33 (inactive) | 3040 cells |
| COc1ccccc1NC(=O)/C=C1\SCC(=O)N1C | -0.25 (inactive) | 3000 cells |
| C=CCNC(=O)/C(=C\c1ccc(Br)cc1)NC(=O)c1ccccc1OC | -0.39 (inactive) | 3390 cells |
| COc1cccc(/C=N/NC(=O)c2oc3nc(-c4ccccc4)cc(-c4ccco4)c3c2N)c1 | -0.32 (inactive) | 3030 cells |
| CCN(CCNC(=O)C1CCCN(S(=O)(=O)CC)C1)c1ccccc1 (stereo not given) | -0.33 (inactive) | 3430 cells |
| O=C(NCc1ccc(F)cc1)C1CCCN(S(=O)(=O)c2cccnc2)C1 (stereo not given) | -0.33 (inactive) | 3070 cells |
| COC(=O)c1[nH]c2cccc(Cl)c2c1NC(=O)CN(C)C1CCCCC1 | -0.33 (inactive) | 3280 cells |
| CCN1CC=C2C(C#N)=C(N)C(C#N)(C#N)[C@H](c3cccc(OC)c3OC)[C@H]2C1 | 0.28 | 2790 cells |
| COc1ccc2cc3cc(C(=O)NCc4ccccn4)oc3nc2c1 | -0.38 (inactive) | 3310 cells |
| COc1ccc2nc(SCC(=O)Nc3c(C)cccc3C)[nH]c2c1 | -0.39 (inactive) | 3480 cells |
| CCCCN1C(=O)/C(=C/C=C2\Oc3ccccc3N2CC)SC1=S | 1.42 | 3450 cells |
| O=C(/C=C/c1c[nH]c2ccccc12)c1c(O)n(CCc2ccccc2)c(=O)[nH]c1=O | 2.73 | 2920 cells |
| CN1/C(=C\C=C2/C(=O)Oc3ccccc3C2=O)C(C)(C)c2ccccc21 | 3.27 | 3310 cells |
| CC1(C)c2ccccc2N2CC(=O)NC21/C=C/c1ccco1 (stereo not given) | -0.33 (inactive) | 2980 cells |
| Cn1c(C(=O)N2CCC(C(=O)N3CCN(Cc4ccc5c(c4)OCO5)CC3)CC2)cc2sccc21 | -0.39 (inactive) | 2820 cells |
